Measurements published in ChEMBL document CHEMBL1144227, “2,2'-Pyridoin derivatives protect HL-60 cells against oxidative stress” (Bioorg Med Chem Lett, 2008).
Activity calls are given as the source filed them. The rule behind the calls is not given here.

How the values were obtained:
[1] = test system: HL-60; test: Cytoprotective activity against hydrogen peroxide-induced cell death in human HL-60 cells assessed as cell viability at 30 uM after 24 hrs by trypan blue exclusion assay; type: functional; conditions: for viability at 30 µM: HL-60, 24 h, read-out: Activity
[2] = Antioxidant activity assessed as inhibition of lipid peroxidation; type: functional
[3] = test system: HL-60; test: Radical scavenging activity in human HL-60 cells assessed as reduction of hydrogen peroxide-induced ROS generation at 30 uM after 1 hr by 2',7'-dichlorofluorescein diacetate based flow cytometry; type: functional, cell-based
[4] = test system: HL-60; test: Toxicity against human HL-60 cells at 60 uM after 24 hrs by trypan blue exclusion assay; type: cell-based; conditions: hl-60, 24 h
[5] = test system: HL-60; test: Toxicity against human HL-60 cells at 100 uM after 24 hrs by trypan blue exclusion assay; type: cell-based; conditions: hl-60, 24 h
[6] = test system: HL-60; test: Radical scavenging activity in human HL-60 cells assessed as reduction of hydrogen peroxide-induced ROS generation at 30 uM administered 3 hrs before H2O2 challenge measured after 1 hr by 2',7'-dichlorofluorescein diacetate based flow cytometry; type: functional, cell-based

Compound: COc1ccc(/C(O)=C(\O)c2ccc(OC)cn2)nc1
- viability at 30 µM [1]: 51.9%
- Activity [2]: Active
- Activity [3]: Active
- Activity [4]: Non-toxic

Compound: O/C(=C(/O)c1ccccn1)c1ccccn1
- viability at 30 µM [1]: 42.1%
- Activity [5]: Non-toxic
- Activity [3]: Active

Compound: Cc1cc(C(C)(C)C)c(O)c(C(C)(C)C)c1 [BUTYLATED HYDROXYTOLUENE]
- Activity [5]: Toxic

Compound: Cc1cccc(C(=O)C(=O)c2cccc(C)n2)n1
- Activity [1]: Active
- Activity [5]: Non-toxic

Compound: O=C(C(=O)c1ccccn1)c1ccccn1
- Activity [1]: Active
- Activity [5]: Non-toxic

Compound: COc1cccc(C(=O)C(=O)c2cccc(OC)n2)n1
- Activity [1]: Active
- Activity [5]: Non-toxic

Compound: Cc1ccc(/C(O)=C(\O)c2ccc(C)cn2)nc1
- viability at 30 µM [1]: 51.9%
- Activity [2]: Active
- Activity [3]: Active
- Activity [4]: Non-toxic

Compound: O=C1O[C@H]([C@@H](O)CO)C(O)=C1O [ASCORBIC ACID]
- Activity [6]: Active
- viability at 30 µM [1]: 37.9%
- Activity [3]: Active

Compound: COc1ccc(C(=O)C(=O)c2ccc(OC)cn2)nc1
- Activity [1]: inactive
- Activity [5]: Non-toxic

Compound: Cc1ccc(C(=O)C(=O)c2ccc(C)cn2)nc1
- Activity [1]: Active
- Activity [5]: Non-toxic

Compound: Cc1cccc(/C(O)=C(\O)c2cccc(C)n2)n1
- viability at 30 µM [1]: 51.9%
- Activity [5]: Non-toxic
- Activity [3]: Active

Compound: COc1cccc(/C(O)=C(\O)c2cccc(OC)n2)n1
- viability at 30 µM [1]: 51.9%
- Activity [5]: Non-toxic
- Activity [2]: Active
- Activity [3]: Active
